{
  "source": "patent US9981961B2",
  "about": "“Deoxycytidine kinase inhibitors” (The Regents of the University of California, priority 2013, dated 2018)",
  "key": {"[1]": {"target": "dCK activity in CCRF-CEM tumor xenografts (Homo sapiens, UniProt P27707)", "sequence (P27707 whole entry)": "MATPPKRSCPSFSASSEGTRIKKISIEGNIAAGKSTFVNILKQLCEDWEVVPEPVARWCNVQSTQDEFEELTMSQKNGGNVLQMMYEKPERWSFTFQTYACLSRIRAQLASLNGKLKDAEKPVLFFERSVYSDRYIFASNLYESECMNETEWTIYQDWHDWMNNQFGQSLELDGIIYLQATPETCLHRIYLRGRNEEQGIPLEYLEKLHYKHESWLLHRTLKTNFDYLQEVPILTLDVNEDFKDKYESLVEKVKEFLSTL", "experimental": "Four hours post-treatment mice were injected intravenously with 70 μCi of ^18F-L-FAC. For all mPET/CT studies, a 1 h interval was allowed between probe administration and mPET/CT scanning (Inveon, Siemens Medical Solutions USA Inc.; microCAT, Imtek Inc.). Static mPET images were acquired for 600 s. Images were analyzed using OsiriX Imaging Software Version 3.8."}, "[2]": {"tested_on": "NSP-produced dCTP incorporated into DNA of CEM cells", "assay": "Stable isotope labeling of dCTP biosynthesis in CEM cells", "type": "cell-based, human", "conditions": "12 hr labeling, dT treatment"}, "[3]": {"tested_on": "dCTP and dTTP pools of CEM cells", "assay": "Intracellular dNTP pool measurement in CEM cells", "type": "cell-based, human", "conditions": "24 hr"}, "[4]": {"tested_on": "CEM leukemic cells in bone marrow", "assay": "Systemic T-ALL model (CEM cells injected intravenously)", "type": "in vivo, NSG mice", "conditions": "dT 2 g/kg every 12 hr", "experimental": "Ten μL of blood was collected via tail vein nick and mixed with 2 μL 50 mM EDTA. One μL of blood was mixed with 99 μL PBS and transferred to a 96 well OptiPlate (Perkin Elmer). One hundred μL of 20 μM coelenterazine substrate was mixed and luciferase activity was measured using a plate luminescence microplate reader SpectraMax L (Molecular Devices). Systemic tumor models were established by intravenous injection of 10^6 CEM dCK^wt-sGluc-GFP or dCK^low-sGluc-GFP in 100 μL RPMI."}, "[5]": {"tested_on": "NSP-produced dCTP incorporated into tumor DNA", "assay": "[U-13C/15N]-dC incorporation into DNA of CEM tumor xenografts", "type": "in vivo, NSG mice", "conditions": "dCK^wt CEM tumors, dT 2 g/kg single dose, 4 hr", "protocol": "For the in vivo studies, tumor-bearing mice were injected with 200 μL, of 2.5 mM [U-^13C/^15N]-deoxycytidine 30 min prior to sacrifice. Tumors were harvested, mechanically digested into single cells, and cell counts were obtained. DNA extraction was carried out as described above.\nDNA hydrolysis samples were diluted 1/1 with solvent A (water/formic acid, 100/0.2, v/v) and analyzed using a modified version of a previously reported method (Cohen et al., 2009) in which aliquots of the solution (10 μL) were injected onto a porous graphitic carbon column (Thermo Hypercarb, 100×2.1 mm, 3 micron particle size) equilibrated in solvent A and eluted (300 μL/min) with an increasing concentration of solvent B (acetonitrile/min/% B; 0/0, 6/60, 6.1/100, 9/100, 9.1/0, 10/0). […] After verification of retention times using authentic standards, the peak areas of the MH^+→fragment ion transitions for the dC isotopomers (M0, 228.1→112.1; M1, 229.1→112.1; M2, 230.1→112.1; M3, 231.1→112.1; M4, 232.1→112.1; M5, 233.1→112.1; M6, 234.1→113.1; M7, 235.1→114.1; M8, […]; […]; M11, 239.1→118.1; and M12, 240.1→119.1) were recorded with instrument manufacturer-supplied software (Agilent MassHunter), and normalized to cell number. The dC isotopomers of M3 through M8 for the DNP and M11 through M12 for NSP were detected and used for data analysis."}, "[6]": {"assay": "Plasma thymidine level after dT injection", "type": "in vivo, NSG mice", "protocol": "NOD SCID gamma (NSG) mice were injected with 2 g/kg dT intraperitoneally; 75 μL of whole blood was obtained at 0, 2, 4, and 8 hr through retro-orbital sinus bleed using hematocrit capillary tubes. Whole blood was immediately centrifuged at 3000× g for 5 min to isolate serum; 30 μL of serum was mixed with 1 mL methanol:acetonitrile (1:9), vortexed for 2 min, centrifuged at 14,000× g for 4 min at 4° C. Extraction was repeated and the pooled supernatant was dried under vacuum centrifugation. The residue was dissolved in 100 μL water, filtered and eluted through a Waters microBondapak C18 column under a gradient mobile phase from 2% methanol to 50% methanol over ten minutes at a flow rate of 1.5 mL/min."}},
  "data": [
    {"smiles": "Cc1cn([C@H]2C[C@H](O)[C@@H](CO)O2)c(=O)[nH]c1=O", "note": "[dT, thymidine]", "values": [
      {"measurement": "increase of 18F-L-FAC accumulation", "setting": "[1]", "value": "~20", "unit": "%"},
      {"measurement": "fold increase over baseline of utilization of NSP-produced dCTP for DNA synthesis", "setting": "[2]", "value": "more than 3 fold"},
      {"measurement": "fold increase of dTTP", "setting": "[3]; 50 μM dT", "value": "~20", "unit": "fold"},
      {"measurement": "fold reduction of dCTP", "setting": "[3]; 50 μM dT", "value": "~5", "unit": "fold"},
      {"measurement": "decrease of dCTP pool", "setting": "[3]; DI-39 1 μM, dT 50 μM, or both", "value": "~30", "unit": "%"},
      {"measurement": "fold reduction in percentage of leukemic cells in bone marrow relative to vehicle and DI-39 treated groups", "setting": "[4]", "value": "~7", "unit": "fold"},
      {"measurement": "fold increase of labeled dCTP incorporation into DNA", "setting": "[5]", "value": "~3", "unit": "fold"},
      {"measurement": "concentration at 8 hr", "setting": "[6]; NOD SCID gamma (NSG), mouse, plasma, ip, at 8 hr after single injection 2 g/kg intraperitoneally, read-out: plasma dT, declined to baseline values", "value": "~10", "unit": "µM"},
      {"measurement": "plasma dT peak", "setting": "[6]; two hours after single injection 2 g/kg intraperitoneally", "value": 1.5, "unit": "mM"}
    ]}
  ]
}
